# Reference: BindingDB's records for doi:10.1021/jm00039a024 (Eisai, 1994)
# Molecular target: cGMP-specific 3',5'-cyclic phosphodiesterase, PDE5 (Sus scrofa)
# Test: Inhibitory activity against cGMP-phosphodiesterase from porcine aorta
row,SMILES,IC50
1,"CSc1ccc2ncn(Cc3ccc4c(c3)OCO4)c(=O)c2c1 [3-Benzo[1,3]dioxol-5-ylmethyl-6-methylsulfanyl-3H-quinazolin-4-one]",2300 nM
2,"O=c1c2ccc(Cl)cc2ncn1Cc1ccc2c(c1)OCO2 [3-Benzo[1,3]dioxol-5-ylmethyl-7-chloro-3H-quinazolin-4-one]",8700 nM
3,"COc1ccc2ncnc(NCc3ccc4c(c3)OCO4)c2c1OC [Benzo[1,3]dioxol-5-ylmethyl-(5,6-dimethoxy-quinazolin-4-yl)-amine]",730 nM
4,"COc1cc(OC)c2ncnc(NCc3ccc4c(c3)OCO4)c2c1 [Benzo[1,3]dioxol-5-ylmethyl-(6,8-dimethoxy-quinazolin-4-yl)-amine]",810 nM
5,"COc1cc2ncnc(NCc3ccc4c(c3)OCO4)c2cc1SC [Benzo[1,3]dioxol-5-ylmethyl-(7-methoxy-6-methylsulfanyl-quinazolin-4-yl)-amine]",350 nM
6,"O=C(c1ccc2ncnc(NCc3ccc4c(c3)OCO4)c2c1)N1CCOCC1 [{4-[(Benzo[1,3]dioxol-5-ylmethyl)-amino]-quinazolin-6-yl}-morpholin-4-yl-methanone]",2700 nM

# Second part, the compound after the results:
row,IC50,SMILES
1,770 nM,"NC(=O)c1ccc2ncnc(NCc3ccc4c(c3)OCO4)c2c1 [4-[(Benzo[1,3]dioxol-5-ylmethyl)-amino]-quinazoline-6-carboxylic acid amide]"
2,2300 nM,"CN(C)C(=O)c1ccc2ncnc(NCc3ccc4c(c3)OCO4)c2c1 [4-[(Benzo[1,3]dioxol-5-ylmethyl)-amino]-quinazoline-6-carboxylic acid dimethylamide]"
3,620 nM,"CCOC(=O)c1ccc2ncnc(NCc3ccc4c(c3)OCO4)c2c1 [4-[(Benzo[1,3]dioxol-5-ylmethyl)-amino]-quinazoline-6-carboxylic acid ethyl ester]"
4,380 nM,"CCOc1ccc2ncnc(NCc3ccc4c(c3)OCO4)c2c1 [Benzo[1,3]dioxol-5-ylmethyl-(6-ethoxy-quinazolin-4-yl)-amine]"
5,810 nM,"CS(=O)(=O)c1ccc2ncnc(NCc3ccc4c(c3)OCO4)c2c1 [Benzo[1,3]dioxol-5-ylmethyl-(6-methanesulfonyl-quinazolin-4-yl)-amine]"
6,230 nM,"COc1ccc2ncnc(NCc3ccc4c(c3)OCO4)c2c1 [Benzo[1,3]dioxol-5-ylmethyl-(6-methoxy-quinazolin-4-yl)-amine]"
7,100 nM,"Cc1ccc2ncnc(NCc3ccc4c(c3)OCO4)c2c1 [Benzo[1,3]dioxol-5-ylmethyl-(6-methyl-quinazolin-4-yl)-amine]"
8,930 nM,"OCc1ccc2ncnc(NCc3ccc4c(c3)OCO4)c2c1 [{4-[(Benzo[1,3]dioxol-5-ylmethyl)-amino]-quinazolin-6-yl}-methanol]"
